Experimental data from the supplement of paper PMC4862054.

Tests used:
Experiment in all cases: normalised viability (% of control), CellTiter-Blue; higher = more viable cells (about 100 = DMSO control)
HCC1143 [1] = conditions: incubation time: 72 h
In short: (§1)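 384-well plates were pre-loaded with compound in 5 µl medium before 20 µl of breast cancer cell suspension was seeded. Following 72 h incubation, 2.5 µl CellTiter-Blue reagent was added for 2 h at 37 °C. Fluorescence was read at 560/590 nm and plates were normalised to vehicle (100) and a positive kill control (0), checked by Z'-factor. Normalised viability is reported at a single listed concentration of the series.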

MDA-MB-453 [2] = conditions: incubation time: 72 h
In short: as §1

SK-BR-3 [3] = conditions: incubation time: 72 h
In short: as §1

BT-474 [4] = conditions: incubation time: 72 h
In short: as §1

DU-4475 [5] = conditions: incubation time: 72 h
In short: as §1

MDA-MB-468 [6] = conditions: incubation time: 72 h
In short: as §1

CAL-148 [7] = conditions: incubation time: 72 h
In short: as §1

CAL-51 [8] = conditions: incubation time: 72 h
In short: as §1

MFM-223 [9] = conditions: incubation time: 72 h
In short: as §1

MDA-MB-231 [10] = conditions: incubation time: 72 h
In short: as §1

HCC1599 [11] = conditions: incubation time: 72 h
In short: as §1

HCC1937 [12] = conditions: incubation time: 72 h
In short: as §1

HCC1143 [13] = conditions: 100 nM; incubation time: 72 h
Protocol: (§2)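 DSRT, CellTiter-Blue viability, 72 h incubation. Signal is normalised to DMSO and benzethonium chloride controls. Value is the normalised response at dose 3.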

MDA-MB-436 = conditions: 100 nM; incubation time: 72 h
Protocol: as §2

Hs578T = conditions: 100 nM; incubation time: 72 h
Protocol: as §2

MDA-MB-453 [14] = conditions: 10 nM; incubation time: 72 h
Protocol: as §2

SK-BR-3 [15] = conditions: 100 nM; incubation time: 72 h
Protocol: as §2

HDQ-P1 = conditions: 10 nM; incubation time: 72 h
Protocol: as §2

BT-474 [16] = conditions: 100 nM; incubation time: 72 h
Protocol: as §2

DU-4475 [17] = conditions: 10 nM; incubation time: 72 h
Protocol: as §2

CAL-85-1 = conditions: 10 nM; incubation time: 72 h
Protocol: as §2

MDA-MB-468 [18] = conditions: 100 nM; incubation time: 72 h
Protocol: as §2

CAL-148 [19] = conditions: 10 nM; incubation time: 72 h
Protocol: as §2

BT-549 = conditions: 100 nM; incubation time: 72 h
Protocol: as §2

CAL-51 [20] = conditions: 10 nM; incubation time: 72 h
Protocol: as §2

CAL-120 = conditions: 100 nM; incubation time: 72 h
Protocol: as §2

MFM-223 [21] = conditions: 100 nM; incubation time: 72 h
Protocol: as §2

MDA-MB-231 [22] = conditions: 100 nM; incubation time: 72 h
Protocol: as §2

HCC1599 [23] = conditions: 100 nM; incubation time: 72 h
Protocol: as §2

HCC1937 [24] = conditions: 100 nM; incubation time: 72 h
Protocol: as §2

COc1cc(Nc2c(C#N)cnc3cc(OCCCN4CCN(C)CC4)c(OC)cc23)c(Cl)cc1Cl [Bosutinib]
normalised viability [%]
Conditions	3 nM	10 nM	30 nM	100 nM	1000 nM	10000 nM
BT-474 [4]	–	113	–	–	94.6	6.35
CAL-51 [8]	115	–	114	120	–	–
CAL-148 [7]	77.2	–	92.3	87.6	–	–
DU-4475 [5]	105	–	108	86.5	–	–
HCC1143 [1]	–	83.8	–	–	73	48.9
HCC1599 [11]	–	131	–	–	93.3	51.7
HCC1937 [12]	–	106	–	–	84.9	8.95
MDA-MB-231 [10]	–	98.9	–	–	142	2.42
MDA-MB-453 [2]	120	–	107	105	–	–
MDA-MB-468 [6]	–	104	–	–	95.2	14.5
MFM-223 [9]	–	100	–	–	80.8	36.8
SK-BR-3 [3]	–	99	–	–	86.3	1.28

Conditions	normalised viability [%]
BT-474 [16]	103
BT-549	113
CAL-51 [20]	116
CAL-85-1	108
CAL-120	90.4
CAL-148 [19]	84.6
DU-4475 [17]	109
HCC1143 [13]	84.3
HCC1599 [23]	108
HCC1937 [24]	98.2
HDQ-P1	128
Hs578T	106
MDA-MB-231 [22]	121
MDA-MB-436	130
MDA-MB-453 [14]	104
MDA-MB-468 [18]	107
MFM-223 [21]	90.3
SK-BR-3 [15]	74.8

CC1(C)CCC(c2ccc(Cl)cc2)=C(CN2CCN(c3ccc(C(=O)NS(=O)(=O)c4ccc(N[C@H](CCN5CCOCC5)CSc5ccccc5)c(S(=O)(=O)C(F)(F)F)c4)cc3)CC2)C1 [Navitoclax]
normalised viability [%]
Conditions	3 nM	10 nM	30 nM	100 nM	1000 nM	10000 nM
BT-474 [4]	–	96.3	–	–	95.2	63
CAL-51 [8]	112	–	104	101	–	–
CAL-148 [7]	85.1	–	88.2	89.2	–	–
DU-4475 [5]	88.7	–	72.9	70.3	–	–
HCC1143 [1]	–	71.8	–	–	78.1	65.3
HCC1599 [11]	–	94.5	–	–	62.2	74.7
HCC1937 [12]	–	87.6	–	–	85.8	85
MDA-MB-231 [10]	–	74.7	–	–	55.7	30.6
MDA-MB-453 [2]	104	–	88.5	74.9	–	–
MDA-MB-468 [6]	–	91.9	–	–	81.6	71.2
MFM-223 [9]	–	77.2	–	–	68.7	40.6
SK-BR-3 [3]	–	83.8	–	–	86	73.2

Conditions	normalised viability [%]
BT-474 [16]	97.3
BT-549	97.2
CAL-51 [20]	105
CAL-85-1	88.2
CAL-120	61.3
CAL-148 [19]	87
DU-4475 [17]	86.9
HCC1143 [13]	75.3
HCC1599 [23]	93.5
HCC1937 [24]	96.3
HDQ-P1	87.4
Hs578T	78.2
MDA-MB-231 [22]	71.9
MDA-MB-436	89.2
MDA-MB-453 [14]	84.3
MDA-MB-468 [18]	84.2
MFM-223 [21]	75.5
SK-BR-3 [15]	58.8

CC[C@H](CO)Nc1nc(NCc2ccccc2)c2ncn(C(C)C)c2n1 [Roscovitine]
normalised viability [%]
Conditions	3 nM	10 nM	30 nM	100 nM	1000 nM	10000 nM
BT-474 [4]	–	109	–	–	96.5	79.4
CAL-51 [8]	111	–	105	105	–	–
CAL-148 [7]	77.4	–	85.8	83.5	–	–
DU-4475 [5]	99.9	–	101	89.7	–	–
HCC1143 [1]	–	84.3	–	–	88.1	74.7
HCC1599 [11]	–	109	–	–	95.8	64.4
HCC1937 [12]	–	83.8	–	–	105	77.2
MDA-MB-231 [10]	–	88	–	–	96.5	76.6
MDA-MB-453 [2]	105	–	114	109	–	–
MDA-MB-468 [6]	–	93	–	–	106	83.7
MFM-223 [9]	–	92.5	–	–	91.5	85.1
SK-BR-3 [3]	–	90.3	–	–	104	87

Conditions	normalised viability [%]
BT-474 [16]	94.9
BT-549	98.5
CAL-51 [20]	104
CAL-85-1	101
CAL-120	82.7
CAL-148 [19]	88.8
DU-4475 [17]	104
HCC1143 [13]	83.4
HCC1599 [23]	116
HCC1937 [24]	97.3
HDQ-P1	120
Hs578T	91.1
MDA-MB-231 [22]	88.5
MDA-MB-436	96.5
MDA-MB-453 [14]	106
MDA-MB-468 [18]	108
MFM-223 [21]	89
SK-BR-3 [15]	73.1
